Experimental data: patent publication US8338599B2, “Compounds having a potentiating effect on the activity of ethionamide and uses thereof” (priority 2006, dated 2012)
In brackets after ≈: the same amount, converted by molar mass. Read-outs that look alike come from different tables or passages of the source.

Columns and labels:
EthR protein [1] = target: T1, EthR protein (Mycobacterium tuberculosis, UniProt P9WMC1); assay: Inhibition of interaction of EthR with its target DNA sequence (BIAcore); assay type: binding, M. tuberculosis H37Rv; details: compound 3 μM, EthR 540 nM, 37° C.
Description: a) Measurement of the Activity of the Compounds on the Inhibition of Interaction of EthR with its Target DNA Sequence
The in vitro measurements of inhibition of binding of the EthR protein to its target DNA sequence were performed on a machine of BIAcore®2000 type (AB, Uppsala, Sweden).
The chips used are CM5 chips sold by the company GE Healthcare. Both the channels of a chip were activated with a solution containing 200 mM of EDC(N-ethyl-N′-(3-[…])carbodiimide) and 50 mM of NHS (N-hydroxysuccinimide). Next, streptavidin (500 ng/μl in a solution containing 10 mM of sodium acetate (pH 3.5) was injected over 12 minutes at a flow rate of 10 μl/minute. The 106-base-pair biotinylated DNA fragment corresponding to the ethA-R intergene region was deposited on one of the two channels of the chip at a rate of 200 ng/ml in order to obtain stable binding of streptavidin corresponding to 50 RU (resonance units). This DNA fragment was obtained by PCR using the chromosomal DNA of M. tuberculosis H37Rv as matrix and O-270: 5′-[…]-3′ (SEQ ID: No. 1) and O-271: 5′-biotin-[…]-3′ (SEQ ID: No. 2). The second channel was functionalized with a 113-base-pair biotinylated DNA fragment (fragment +14 to +127 of the bla gene of E. coli PCR-amplified using the following oligonucleotides: O-343: 5′-[…]-3′ (SEQ ID: No. 3) and O-344: 5′-biotin-[…]-3′ (SEQ ID: No. 4).
Measurement of the binding of the EthR protein to the immobilized DNA was performed at 37° C. in a reference buffer containing 10 mM of Tris-HCl (pH=7.5), 200 mM of NaCl, 0.1 mM of EDTA, 1 mM of DTT and 1% of DMSO at a flow rate of 20 μl/minute. The specific interaction (SI) of EthR with the 106-base-pair double-stranded DNA sequence, expressed in resonance units, corresponds to the difference in signal observed between the two channels.
For each inhibition measurement, the compounds of the invention are dissolved in the reference buffer at a concentration of 3 μM. The compounds of the invention are then incubated in the presence of the protein (540 nM) at 37° C. for 5 minutes, and each solution is then injected onto the two channels of the chip for 3 minutes at a flow rate of 20 μl/minute. The inhibition values are calculated at the end of the injection according to the following equation: […]
in which SIEthR corresponds to the value measured without ligand and SIEthR+ligand corresponds to the value measured in the presence of to ligand.

EthR protein [2] = target: T1, EthR protein; assay: In vitro measurement of the IC50 (EthR/DNA binding, BIAcore); design: species or system M. tuberculosis H37Rv
Description: b) In Vitro Measurement of the IC50 of the Compounds of the Invention.
The in vitro measurement of this datum was performed according to the same principle as for the measurement of inhibition of the EthR/DNA binding using the BIAcore technique.
The specific interaction between EthR and the specific 106-bp DNA fragment was measured on a range of six concentrations of the compounds of the invention, this range extending from 0.11 μM to 27 μM. The IC50 values are then extrapolated from the sigmoid curves obtained.

[3] = Measurement of the solubility (PBS pH 7.4 vs methanol, LC/MS); assay type: physicochemical; details: pH 7.4, aqueous buffer, kinetic from dmso stock
Description: e) Measurement of the Solubility of the Compounds of the Invention
40 μl of a solution containing a compound of the invention at a concentration of 10 mM in DMSO were diluted in 1.960 ml of methanol, and another 40 μl were diluted in 1.960 ml of a PBS solution containing 675 mM of NaCl, 13.5 mM of KCl, 50 mM of Na2HPO4.2H2O and 10 mM of KH2PO4 at a pH of 7.4. The two solutions were stirred for 24 hours at room temperature, and then centrifuged for 5 minutes and filtered through 0.45 μm filters. 20 μl of each solution were then diluted in 118 μl of methanol and analyzed by liquid chromatography coupled to mass spectrometry (LC/MS). The solubility was determined by the ratio of the areas under the curve of the mass signal for the compound of the invention, according to the following equation: […]

M. bovis BCG = assay type: cell-based, M. bovis BCG 1173P2; details: from MIC of ETH alone (6 μM) and MIC of ETH with 25 μM compound
[4] = six concentrations from 0.11 μM to 27 μM, read-out: IC50

T1 sequence (P9WMC1 whole entry, looked up): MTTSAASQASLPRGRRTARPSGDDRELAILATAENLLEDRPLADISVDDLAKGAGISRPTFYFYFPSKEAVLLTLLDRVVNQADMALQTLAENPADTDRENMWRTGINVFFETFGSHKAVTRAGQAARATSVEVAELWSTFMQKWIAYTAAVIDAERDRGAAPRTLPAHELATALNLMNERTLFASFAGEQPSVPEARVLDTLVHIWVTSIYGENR

SMILES	inhibition at 3 µM (EthR protein [1])	IC50 (EthR protein [2])	solubility at 24 h [3]	IC50 (EthR protein [2]; [4])	Potentiation % (M. bovis BCG)
O=C(Nc1ccccc1)N1CCC(c2nc(-c3cccs3)no2)CC1 [Compound 48, 4-(3-thiophen-2-yl[1,2,4]oxadiazol-5-yl)piperidine-1-carboxylic acid phenylamide]	56%	1140 nM	0.86 µg/mL (≈ 2.43 µM)		
O=C(Cc1cccs1)N1CCC(c2nc(-c3ccc(Br)s3)no2)CC1 [Compound 58, 1-{4-[3-(5-bromothiophen-2-yl)[1,2,4]oxadiazol-5-yl]piperid-1-yl}-2-thiophen-2-ylethanone]	34%				
O=C(CC1CC2CCC1C2)N1CCC(c2nc(-c3cccs3)no2)CC1 (centres unmarked) [Compound 40, 2-bicyclo[2.2.1]hept-2-yl-1-[4-(3-thiophen-2-yl[1,2,4]oxadiazol-5-yl)piperid-1-yl]ethanone]	59%				
O=C(CCC1CCCC1)N1CCC(c2nc(-c3cccs3)no2)CC1 [Compound 34, 3-cyclopentyl-1-[4-(3-thiophen-2-yl[1,2,4]oxadiazol-5-yl)piperid-1-yl]propan-1-one]	48%				
N#CCC(=O)N1CCC(c2nc(-c3ccc(Br)s3)no2)CC1 [Compound 59, 3-{4-[3-(5-bromothiophen-2-yl)[1,2,4]oxadiazol-5-yl]piperid-1-yl}-3-oxo-propionitrile]	77%			390 nM	
[N-]=[N+]=NCC(=O)N1CCC(c2nc(-c3ccc(F)cc3)no2)CC1 [Compound 5, 2-azido-1-{4-[3-(4-fluorophenyl)[1,2,4]oxadiazol-5-yl]piperid-1-yl}ethanone]	15%		9 µg/mL (≈ 27.2 µM)		
O=S(=O)(Cc1ccccc1)N1CCC(c2nc(-c3cccs3)no2)CC1 [Compound 53, 1-phenylmethanesulfonyl-4-(3-thiophen-2-yl[1,2,4]oxadiazol-5-yl)piperidine]	34%				
CC(C)CCC(=O)N1CCC(c2nc(-c3cccs3)no2)CC1 [Compound 25, 4-methyl-1-[4-(3-thiophen-2-yl[1,2,4]oxadiazol-5-yl)piperid-1-yl]pentan-1-one]	70%			910 nM	500%
C#CCCC(=O)N1CCC(c2nc(-c3cccs3)no2)CC1 [Compound 21, 1-[4-(3-thiophen-2-yl[1,2,4]oxadiazol-5-yl)piperid-1-yl]pent-4-yn-1-one]	20%				500%
[N-]=[N+]=NCC(=O)N1CCC(c2nc(-c3ccc4c(c3)OCO4)no2)CC1 [Compound 12, 2-azido-1-[4-(3-benzo[1,3]dioxol-5-yl[1,2,4]oxadiazol-5-yl)piperid-1-yl]ethanone]	19%		71 µg/mL (≈ 199 µM)		
S=C(NC1CC1)N1CCC(c2nc(-c3cccs3)no2)CC1 [Compound 52, 4-(3-thiophen-2-yl[1,2,4]oxadiazol-5-yl)piperidine-1-carbothioic acid cyclopropylamide]	61%				
COc1ccc2nc(-c3noc(C4CCN(C(=O)CN=[N+]=[N-])CC4)n3)sc2c1 [Compound 15]	94%			1560 nM	
O=C(CC1C=CCC1)N1CCC(c2nc(-c3cccs3)no2)CC1 (centres unmarked) [Compound 36, 2-cyclopent-2-enyl-1-[4-(3-thiophen-2-yl[1,2,4]oxadiazol-5-yl)piperid-1-yl]-ethanone]	78%			1000 nM	500%
O=C(NC1CC1)N1CCC(c2nc(-c3cccs3)no2)CC1 [Compound 51, 4-(3-thiophen-2-yl[1,2,4]oxadiazol-5-yl)piperidine-1-carboxylic acid cyclopropylamide]	13%		272 µg/mL (≈ 853 µM)		
O=C(CC1CCCCC1)N1CCC(c2nc(-c3cccs3)no2)CC1 [Compound 37, 2-cyclohexyl-1-[4-(3-thiophen-2-yl[1,2,4]oxadiazol-5-yl)piperid-1-yl]ethanone]	76%			3490 nM	
S=C(Nc1ccccc1)N1CCC(c2nc(-c3cccs3)no2)CC1 [Compound 49, 4-(3-thiophen-2-yl[1,2,4]oxadiazol-5-yl)piperidine-1-carbothioic acid phenylamide]	86%			1340 nM	
O=C(CC1CCCC1)N1CCC(c2nc(-c3cccs3)no2)CC1 [Compound 35, 2-cyclopentyl-1-[4-(3-thiophen-2-yl[1,2,4]oxadiazol-5-yl)piperid-1-yl]ethanone]	52%			1490 nM	2500%
O=C(O)CCC(=O)N1CCC(c2nc(-c3cccs3)no2)CC1 [Compound 31, 4-oxo-4-[4-(3-thiophen-2-yl[1,2,4]oxadiazol-5-yl)piperid-1-yl]butyric acid]			67.1 µg/mL (≈ 200 µM)		
O=C(COc1ccccc1)N1CCC(c2nc(-c3cccs3)no2)CC1 [Compound 45, 2-phenoxy-1-[4-(3-thiophen-2-yl[1,2,4]oxadiazol-5-yl)piperid-1-yl]ethanone]	75%			1500 nM	2500%
O=C(c1ccccc1)N1CCC(c2nc(-c3cccs3)no2)CC1 [Compound 54, phenyl[4-(3-thiophen-2-yl[1,2,4]oxadiazol-5-yl)piperid-1-yl]methanone]	5%		38.7 µg/mL (≈ 114 µM)		
O=C(Cc1ccccc1)N1CCC(c2nc(-c3cccs3)no2)CC1 [Compound 41, 2-phenyl-1-[4-(3-thiophen-2-yl[1,2,4]oxadiazol-5-yl)piperid-1-yl]ethanone]	45%				
COCC(=O)N1CCC(c2nc(-c3cccs3)no2)CC1 [Compound 28, 2-methoxy-1-[4-(3-thiophen-2-yl[1,2,4]oxadiazol-5-yl)piperid-1-yl]ethanone]			61.5 µg/mL (≈ 200 µM)		
O=C(CCC(F)(F)F)N1CCC(c2nc(-c3cccs3)no2)CC1 [Compound 27, 4,4,4-trifluoro-1-[4-(3-thiophen-2-yl[1,2,4]oxadiazol-5-yl)piperid-1-yl]butan-1-one]	96%			1570 nM	500%
O=C(CC1CC1)N1CCC(c2nc(-c3cccc(N(Cc4ccccc4)Cc4ccccc4)c3)no2)CC1 [Compound 57, 2-cyclopropyl-1-{4-[3-(3-dibenzylaminophenyl)[1,2,4]oxadiazol-5-yl]piperid-1-yl}ethanone]	46%				
[N-]=[N+]=NCC(=O)N1CCC(c2nc(-c3ccccc3)no2)CC1 [Compound 4, 2-azido-1-[4-(3-phenyl[1,2,4]oxadiazol-5-yl)piperid-1-yl]ethanone]	15%				500%
[N-]=[N+]=NCC(=O)N1CCC(c2nc(-c3ccsc3)no2)CC1 [Compound 3, 2-azido-1-[4-(3-thiophen-3-yl[1,2,4]oxadiazol-5-yl)piperid-1-yl]ethanone]	14%				500%
CC(=O)N1CCC(c2nc(-c3cccs3)no2)CC1 [Compound 17, 1-[4-(3-thiophen-2-yl[1,2,4]oxadiazol-5-yl)piperid-1-yl]ethanone]			55.5 µg/mL (≈ 200 µM)		
